These results are taken from patent publication US20110166121A1 (LG LIFE SCIENCES LTD., priority 2008, published 2011).

In assay [1] the test system is Human platelet aggregation caused by ADP. As to the kind of experiment: Inhibition of ADP-induced platelet aggregation (Mimic-human PRP). Format: cell-based. As to conditions: 20 μM ADP, human platelet concentrate diluted with PPP, absorption at 595 nm. The gist of the method:
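Human PRP diluted with PPP to 3–4×10^8 platelets/mL was preincubated 20 min at room temperature with compound (0.01–30 μM, DMSO), then stimulated with 20 μM ADP. Aggregation read as A595 increase at 3 min versus 0 and 20 μM ADP controls; Ki from sigmoidal non-linear regression.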

For the next assay, the target named is T1, Human P2Y12 receptor (Homo sapiens, UniProt Q9H244).
T1 construct: expressed in transfected cells; host or cells: HEK cells
T1 sequence (Q9H244 whole entry): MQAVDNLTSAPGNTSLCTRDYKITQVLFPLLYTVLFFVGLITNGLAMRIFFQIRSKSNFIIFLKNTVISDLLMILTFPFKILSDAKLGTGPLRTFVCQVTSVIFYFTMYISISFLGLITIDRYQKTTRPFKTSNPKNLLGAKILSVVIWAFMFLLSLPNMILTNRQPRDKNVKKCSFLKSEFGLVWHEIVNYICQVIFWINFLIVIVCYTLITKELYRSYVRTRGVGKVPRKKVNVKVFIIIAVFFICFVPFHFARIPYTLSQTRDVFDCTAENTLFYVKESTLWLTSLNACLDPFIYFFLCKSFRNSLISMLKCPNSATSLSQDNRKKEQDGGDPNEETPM
As to the kind of experiment: Human P2Y12 receptor cell membrane binding assay with [3H] 2-Mes-ADP. As to conditions: 1 nM [3H] 2-Mes-ADP, membranes of HEK cells expressing P2Y12 receptor; read-out: Binding activity (IC50). The procedure, abridged: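 Membranes from HEK cells expressing human P2Y12 were incubated with compound and 1 nM [3H]2-MeS-ADP for 1 h at room temperature. Bound radioactivity was collected by GF/B filtration.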

As a reminder, the Ki is a measure of affinity in units of concentration, obtained from inhibition or displacement. Higher therefore signals weaker binding. Broadly, the IC50 is the concentration at which inhibition is half-maximal. For the molecule `CCCc1cc2c(N3CCn4c(nnc4C(F)(F)C(F)(F)F)C3)nc(OCCO)nc2s1` [Example 6-9, 2-[4-(3-Pentafluoroethyl-5,6-dihydro-8H-[1,2,4]triazolo[4,3-a]pyrazin-7-yl)-6-propyl-thieno[2,3-d]pyrimidin-2-yloxy]-ethanol], the Ki in assay [1] is 30 nM. Besides, the IC50 at Human P2Y12 receptor was 120 nM.
For `CCc1cc2c(N3CCn4c(C)nnc4C3)nc(N3CCNC(=O)C3)nc2s1` [Example 6-12, 4-[6-Ethyl-4-(3-methyl-5,6-dihydro-8H-[1,2,4]triazolo[4,3-a]pyrazin-7-yl)-thieno[2,3-d]pyrimidin-2-yl]-piperazin-2-one] the same measures were 809 nM and 760 nM.
The like results for `CCc1cc2c(N3CCn4c(C)nnc4C3)nc(OCC(O)CO)nc2s1` (stereo not shown) [Example 6-13, 3-[6-Ethyl-4-(3-methyl-5,6-dihydro-8H-[1,2,4]triazolo[4,3-a]pyrazin-7-yl)-thieno[2,3-d]pyrimidin-2-yloxy]-propane-1,2-diol] were, in that order, 716 nM and 2460 nM.
For `CCCc1cc2c(N3CCn4c(C)nnc4C3)nc(N3CCNC(=O)C3)nc2s1` [Example 6-14, 4-[4-(3-Methyl-5,6-dihydro-8H-[1,2,4]triazolo[4,3-a]pyrazin-7-yl)-6-propyl-thieno[2,3-d]pyrimidin-2-yl]-piperazin-2-one] the same measures were 260 nM and 322 nM.
Consider `CCCc1cc2c(N3CCn4c(C)nnc4C3)nc(OCC(O)CO)nc2s1` (stereo not shown) [Example 6-15, 3-[4-(3-Methyl-5,6-dihydro-8H-[1,2,4]triazolo[4,3-a]pyrazin-7-yl)-6-propyl-thieno[2,3-d]pyrimidin-2-yloxy]-propane-1,2-diol], for which the affinity in assay [1] corresponds to a Ki of 190 nM. The IC50 on Human P2Y12 receptor worked out at 400 nM.
The like results for `CCCc1cc2c(N3CCn4c(C)nnc4C3)nc(OCCO)nc2s1` [Example 6-16, 2-[4-(3-Methyl-5,6-dihydro-8H-[1,2,4]triazolo[4,3-a]pyrazin-7-yl)-6-propyl-thieno[2,3-d]pyrimidin-2-yloxy]-ethanol] were, in that order, 61 nM and 310 nM.
As for `CCCc1cc2c(N3CCn4c(C)nnc4C3)nc(OCCCO)nc2s1` [Example 6-17, 3-[4-(3-Methyl-5,6-dihydro-8H-[1,2,4]triazolo[4,3-a]pyrazin-7-yl)-6-propyl-thieno[2,3-d]pyrimidin-2-yloxy]-propan-1-ol], in assay [1], the Ki is 400 nM. Besides, the IC50 on Human P2Y12 receptor was 750 nM.
For `CCCc1cc2c(N3CCn4c(C)nnc4C3)nc(OCC(CO)CO)nc2s1` [Example 6-18, 2-[4-(3-Methyl-5,6-dihydro-8H-[1,2,4]triazolo[4,3-a]pyrazin-7-yl)-6-propyl-thieno[2,3-d]pyrimidin-2-yloxymethyl]-propane-1,3-diol] the same measures were 300 nM and 670 nM.
